From US11266686B2, “Metal complexes and methods of treatment” (PROCYPRA THERAPEUTICS LLC, priority 2013, dated 2022)

Legend:
MPTP lesioned mice = test: Stool frequency in MPTP lesioned mice; assay type: in vivo, C57BL/6 mice; details: versus vehicle or untreated
Description: Several rodent models of Parkinson's Disease have shown gastrointestinal dysfunction, which has been correlated with the loss of neuronal subpopulations within the enteric nervous system. Intraperitoneal administration of MPTP (1-methyl-4-phenyl-1,2,3,6-tetrahydropyridine) caused a significant reduction in the number of dopaminergic neurons within the substantia nigra pars compacta of C57BL/6 mice. A reduction in neuronal subpopulations within the myenteric plexus of the ileum 21 days after lesioning was also detected and was concomitant with a reduction in stool frequency, indicative of digestive dysfunction.
Patients with neurological diseases, such as Parkinson's Diseases experiencing gastrointestinal disfunction such as constipation, may be associated with the loss of neuronal populations in conjunction with enteric glial cell reactivity within the myenteric plexus of the gastrointestinal tract. Treatment of these patients with metal complexes, such as CuATSM, that are neuroprotective in the central nervous system provides symptom release and also results in disease modifying in the gastrointestinal tract.
MPTP lesioned mice may be treated with the NCD of CuATSM, and the results are compared with untreated mice.

[1] = Cu-63 in brain and plasma of treated MPTP-lesioned mice by ICPMS
Procedure: CuATSM:gluconic acid (1:2) was prepared according to the method of EXAMPLE 7. CuATSM:saccharin (1:2) was prepared according to the methods of EXAMPLE 3. CuATSM was suspended in “Standard Suspension Vehicle” (SSV), consisting of 0.9% (w/v) NaCl, 0.5% (w/v) sodium carboxymethylcellulose, 0.5% (v/v) benzyl alcohol, and 0.4% (v/v) Tween 80 in deionized water. CuATSM:gluconic acid (1:2) and CuATSM:saccharin (1:2) were suspended in sterile water. Samples were prepared by adding one of the compounds to the liquid vehicle (water or SSV) in a vial and then vortexing the mixture for 3 min with a stir bar inside.
MPTP mouse models of PD are described by (Przedborski & Vila, 2003). […] Behavioral testing via the wire test and tissue harvesting followed.
Copper uptake in brain and in plasma was measured by inductively-coupled plasma mass spectrometry (ICPMS) determination of the naturally-occurring copper isotope Cu-63. Brain tissue was obtained from the left hemisphere of the brain.

[2] = MPTP-lesioned mice, 30 mg/kg API oral for 21 days
[3] = MPTP-lesioned mice, 30 mg/kg API oral for 21 days, ICPMS

SMILES | stool frequency (MPTP lesioned mice) | Cu-63 in brain, Average ([1]; mouse, in vivo, po, 30 mg/kg) | Cu-63 in plasma, Average ([1]; mouse, in vivo, po, 30 mg/kg) | Cu-63 concentrations in brain tissue as compared to the SSV control [1, 2] | Cu-63 concentrations in plasma as compared to the SSV control [1, 2] | Cu-63 in brain, Average [1, 3] | Cu-63 in plasma, Average [1, 3]
CNC1=NN=C(C)C(C)=NN=C(NC)[S][Cu][S]1 [CuATSM, Copper(II) diacetyl-di(N4-methyl)thiosemicarbazone, reference compound] | improved stool frequency | 18.48 µg/g | 5.40 μmol/ltr | – | – | – | –
CNC1=NN=C(C)C(C)=NN=C(NC)[S][Cu][S]1.O=C(O)C(O)C(O)C(O)C(O)CO.O=C(O)C(O)C(O)C(O)C(O)CO [CuATSM:gluconic acid (1:2)] | – | – | – | significant (all p<0.001) increase | No treatments resulted in significant (all p>0.05) change | 22.20 µg/g | 5.27 μmol/ltr
CNC1=NN=C(C)C(C)=NN=C(NC)[S][Cu][S]1.O=C1NS(=O)(=O)c2ccccc21.O=C1NS(=O)(=O)c2ccccc21 [CuATSM:saccharin (1:2)] | – | – | – | significant (all p<0.001) increase | No treatments resulted in significant (all p>0.05) change | 14.66 µg/g | 6.13 μmol/ltr
